Assay results taken from patent US20160120915A1, “METHODS FOR MANIPULATING IMMUNE RESPONSES BY ALTERING MICROBIOTA” (NEW YORK UNIVERSITY, priority 2013, published 2016).
Entries after “also recorded” stand apart in the source; their conditions may differ. Structures can show the parent of a compound that is named as a salt.

Assays:
[1] = test system: intestinal microbial community; test: NOD: 16S rRNA V4 sequencing of fecal, cecal and ileal microbiota; assay type: in vivo, NOD mice; conditions: for fecal microbial community structure (PCoA, unweighted unifrac): all time points
Procedure: Fecal pellets were collected at least weekly from weaning at 3 weeks of age until the study termination at 31 weeks of age, and stored at −20° C. until processing. DNA was extracted from fecal pellets using the PowerLyzer™ PowerSoil® DNA Isolation Kit (MoBio, Carlsbad Calif.) and stored at −20° C. Cecal and ileal samples were collected upon necropsy at 6 weeks of age, upon diabetes development, or at the termination of the experiment at […] of age, and extracted using the PowerLyzer™ PowerSoil® DNA Isolation Kit.
Fecal samples collected at 3, 6, 10, and 13 weeks of age, and cecal and ileal samples collected at 6 weeks of age were used for sequencing. The V4 region of the 16S rRNA gene was amplified using universal primers 515 forward primer (5′ GTGCCAGCMGCCGCGGTAA 3′ SEQ ID NO: 54) and 806 reverse primer (5′ […] 3′ SEQ ID NO: 55) [Escherichia coli strain 83972 sequence (greengenes accession no. prokM-SA_id:470367] linked to a 12 base Goley barcode for multiplexing (Caporaso et al., The ISME Journal 2012; 6:1621-4. Caporaso et al., Proc. Natl. Acad. Sci. USA, 2011; 108 Suppl 1:4516-22). Sequencing was performed on the Miseq platform with a 15% PhiX spike.
The sequences were analyzed using the macqiime 1.7.0 software (Caporaso et al., Nature Methods 2010; 7:335-6). Sequences were aligned using the Ribosomal Database Project (RDP) classifier (Wang et al., Applied and Environmental Microbiology 2007; 73:5261-7). Taxonomy was assigned based on the GreenGenes May 2013. For alpha diversity measurements, observed number of species and phylogenic distance (PD) were calculated. For beta diversity measurements, unweighted unifrac distances were calculated (Lozupone C, Knight R., Applied and Environmental Microbiology 2005; 71:8228-35). The unweighted unifrac distances were used for principal coordinates analysis (PCoA), and visualized using the KiNG software. Further sequencing analysis and correlations were performed using the phyloseq and ellipse packages in R.

[2] = test system: NOD mice; test: NOD PAT/STAT: type 1 diabetes incidence; assay type: in vivo, NOD/ShiLTj mice
Excerpt: Pregnant NOD/ShiLTj mice were randomized into 3 groups: Control, STAT, and PAT. Control mice were maintained on non-acidified sterilized water. STAT pregnant dams were given low dose penicillin beginning late in pregnancy until pups were 12 weeks of age. PAT mice were given 3 therapeutic doses of tylosin starting on day 10 of life. At 6 weeks of age, 13 male (5 control, 3 STAT, 5 PAT) and 15 female (5 per group) NOD mice were sacrificed for immune-phenotyping by flow cytometry and ileal gene expression analysis by microarray and qPCR. From 10 weeks of age to 31 weeks of age, mice were tested for diabetes weekly by blood glucose measurement and urinary glucose detection. Onset of diabetes was defined as two consecutive weeks of blood glucose >250 mg/dl and glucosuria.
For the NOD experiments, dams (and their litters) were divided into control, STAT, and PAT groups (FIG. 33). The control mice were given non-acidified sterilized water throughout the experiments, and for the 2 antibiotic groups (STAT and PAT), the antibiotics were dissolved in non-acidified sterilized water. For STAT, subtherapeutic penicillin VK (1 mg/kg/day) was added to the drinking water in late pregnancy (so that the pups pass through an altered vaginal microbiota), and then continued until day 84 of life. […] Mice were monitored for diabetes onset by glucosuria and blood glucose, starting at 10 weeks of age. […]

SMILES	Akkermansia muciniphila (species level) ([1]; STAT male cecal and ileal samples, vs controls (less than PAT))	prevalence of Bifidobacterium sp. ([1]; STAT-antibiotic-treated NOD mice vs controls)	fecal microbial community structure (PCoA, unweighted unifrac) ([1]; males and females)	bloom in Verrucomicrobia ([1]; cecal and ileal samples from male STAT mice)	abundance of all 3 named Bifidobacterium species ([1]; females)	OTU richness ([1]; females, only at 3 weeks of age, vs controls)	OTU richness ([1]; males, at 3 and 6 weeks of age, vs controls)	type 1 diabetes expression ([2]; NOD mice, STAT-antibiotic-treated)	cecal and ileal microbial composition ([1]; 6-week old NOD mice, Adonis test)	Bacteroides ([1]; PAT samples after the first antibiotic pulse)	Verrucomicrobia (phylum level) ([1]; PAT samples after the first antibiotic pulse, vs control)	Akkermansia muciniphila (species level) ([1]; PAT samples starting at 3 weeks)	Phylogenic diversity (PD) ([1]; all sample times, all sample types, males and females, vs controls)	OTU richness ([1]; all sample times, all sample types, males and females, vs controls, FDR p<0.05)	relative abundance of Bifidobacterium genus ([1]; females and males)	relative abundance of three detectable Bifidobacterium species (B. animalis, B. adolescentis, B. pseudolongum) ([1]; females and males)	relative abundance of unnamed Bifidobacterium species ([1]; females and males)	intragroup beta diversity (unweighted Unifrac distance) ([1]; male NOD mice, vs controls)	development of T1D (diabetes incidence) ([2]; male NOD mice, onset = 2 consecutive weeks blood glucose >250 mg/dl and glucosuria, vs control, listed as PAT)
CC1(C)S[C@@H]2[C@H](NC(=O)COc3ccccc3)C(=O)N2[C@H]1C(=O)[O-].[K+] [STAT, penicillin VK]	more	not different	essentially overlap	greater than in controls but less than in PAT	increased abundance	significantly lower	significantly lower	no different from controls	–	–	–	–	–	–	–	–	–	–	–
CC[C@H]1OC(=O)C[C@@H](O)[C@H](C)[C@@H](O[C@@H]2O[C@H](C)[C@@H](O[C@H]3C[C@@](C)(O)[C@@H](O)[C@H](C)O3)[C@H](N(C)C)[C@H]2O)[C@@H](CC=O)C[C@@H](C)C(=O)/C=C/C(C)=C/[C@@H]1CO[C@@H]1O[C@H](C)[C@@H](O)[C@@H](OC)[C@H]1OC [Tylosin, Tylosin tartrate]	–	–	cluster distinctly from controls	–	–	–	–	–	significantly alters	decrease	large bloom	large bloom	lower	lower	decreases	decreases	decreases	lower	accelerated; also recorded: higher rate
